The source made the active and inactive calls. No cut-off for these calls is given here.
Experiments:
[1] = Cytotoxicity against mouse RAW cells assessed as cell viability; assay type: toxicity, cell-based; design: concentration or dose not given beside the values; conditions: read-out: Activity
[2] = test system: PC-12; assay: Cytotoxicity against rat PC12 cells assessed as cell viability at 40 uM incubated for 24 hrs by CCK-8 assay relative to control; assay type: functional; conditions: read-out: Activity
[3] = test system: PC-12; assay: Cytotoxicity against rat PC12 cells assessed as cell viability at 10 uM incubated for 24 hrs by CCK-8 assay relative to control; assay type: functional; conditions: read-out: Activity
[4] = test system: PC-12; assay: Neuroprotective activity against t-BHP induced oxidative damage in rat PC12 cells model assessed as cell viability at 2.5 to 20 uM incubated for 24 hrs by CCK-8 assay; assay type: functional, cell-based; conditions: dose 2.5-20 µM
[5] = test system: PC-12; assay: Antioxidant activity in t-BHP -induced rat PC12 cells at 2.5 to 20 uM; assay type: functional, cell-based; conditions: dose 2.5-20 µM
[6] = test system: Rattus norvegicus; assay: Neuroprotective activity against cerebral ischemia-reperfusion injury in MCAO rat model assessed as reduction in ROS accumulation in cortex at 10 mg/kg, iv treated after 2 hrs ischemia followed by reperfusion measured after 1 week of post-reperfusion by dihydroethidium staining based fluorescence microscopic analysis; assay type: functional, organism-based; conditions: time 1.0 weeks
[7] = test system: PC-12; assay: Neuroprotective activity against t-BHP induced oxidative damage in rat PC12 cells model assessed as reduction in intracellular ROS level at 10 uM incubated for 24 hrs by DCFH-DA probe based flow cytometry analysis; assay type: functional, cell-based
[8] = test system: Rattus norvegicus; assay: Neuroprotective activity against cerebral ischemia-reperfusion injury in MCAO rat model assessed as reduction in infarct area at 10 mg/kg, iv treated after 2 hrs ischemia followed by reperfusion measured after 1 week of post-reperfusion by TTC staining based analysis; assay type: functional, organism-based; conditions: time 1.0 weeks
[9] = test system: PC-12; assay: Neuroprotective activity against t-BHP induced oxidative damage in rat PC12 cells model assessed as reduction in intracellular ROS level at 10 uM incubated for 24 hrs by DCFH-DA probe based analysis; assay type: functional, cell-based

| SMILES | viability at 40 µM [2] [%] | viability at 10 µM [3] [%] | other results |
| --- | --- | --- | --- |
| COc1ccc(/C=C/C(=O)c2cccc(O)c2)c2cc(-c3ccc(C)cc3)oc12 | 80.6 | 37.7 | viability [1]: < 80% |
| COc1ccc(C(=O)/C=C/c2ccc(OC)c3oc(-c4ccc(C)cc4)cc23)cc1OC | 80.1 | 42.9 |  |
| COc1cc(OC)cc(C(=O)/C=C/c2ccc(OC)c3oc(-c4ccc(C)cc4)cc23)c1 | 92.2 | 76.1 |  |
| COc1cc(OC)cc(-c2cc3c(/C=C/C(=O)c4cc(OC)c(OC)c(OC)c4)ccc(OC)c3o2)c1 | 109 | 89.2 |  |
| COc1ccc(C(=O)/C=C/c2ccc(OC)c3oc(-c4ccc(C)cc4)cc23)cc1O | 69.2 | 14.9 |  |
| CC(C)(C)OO [TERT-BUTYL HYDROPEROXIDE] |  | 52.1 |  |
| COc1ccc(C(=O)/C=C/c2ccc(OC)c3oc(-c4ccc(C)cc4)cc23)c(OC)c1OC | 83.9 | 71.9 |  |
| COC(=O)[C@@H](NC(=O)/C=C/c1ccc(OC)c2oc(-c3ccc(C)cc3)cc12)c1ccccc1 | 99.3 | 74.1 |  |
| COc1cccc(C(=O)/C=C/c2ccc(OC)c3oc(-c4ccc(C)cc4)cc23)c1 | 119 | 55.7 |  |
| COC(=O)[C@@H]1CCCN1C(=O)/C=C/c1ccc(OC)c2oc(-c3ccc(C)cc3)cc12 | 75.5 | 32.3 |  |
| COC(=O)[C@@H](NC(=O)/C=C/c1ccc(OC)c2oc(-c3ccc(C)cc3)cc12)C(C)C | 94.2 | 73.1 |  |
| COc1ccc(-c2cc3c(/C=C/C(=O)NCCc4ccc(O)c(O)c4)ccc(OC)c3o2)cc1OC | 104 | 70.7 |  |
| COC(=O)[C@@H]1CCC(=O)N1C(=O)/C=C/c1ccc(OC)c2oc(-c3ccc(C)cc3)cc12 | 95.3 | 91 |  |
| COc1ccc(/C=C/C(=O)NCCc2ccccc2)c2cc(-c3ccc(C)cc3)oc12 | 99.1 | 93.8 |  |
| COc1cc(C(=O)/C=C/c2ccc(OC)c3oc(-c4ccc(C)cc4)cc23)ccc1F | 102 | 83.8 |  |
| COC(=O)[C@@H](NC(=O)/C=C/c1ccc(OC)c2oc(-c3ccc(C)cc3)cc12)c1ccc(O)cc1 | 92 | 69.7 |  |
| COc1cc(OC)cc(-c2cc3c(/C=C/C(=O)c4ccc(O)c(OC)c4)ccc(OC)c3o2)c1 | 94.6 | 45.6 |  |
| COc1cc(C(=O)/C=C/c2ccc(OC)c3oc(-c4ccc(OC)c(OC)c4)cc23)ccc1O | 93.8 | 12.9 | viability [1]: < 80% |
| COC(=O)[C@H](Cc1c[nH]c2ccccc12)NC(=O)/C=C/c1ccc(OC)c2oc(-c3ccc(C)cc3)cc12 | 117 | 66.1 |  |
| COc1ccc(/C=C/C(=O)c2ccco2)c2cc(-c3ccc(C)cc3)oc12 | 107 | 78.5 | viability [1]: < 80% |
| CC[C@H](NC(=O)/C=C/c1ccc(OC)c2oc(-c3ccc(C)cc3)cc12)C(=O)OC | 84 | 66.4 |  |
| COc1ccc(/C=C/C(=O)c2ccc(N3CCOCC3)cc2)c2cc(-c3ccc(C)cc3)oc12 | 85 | 77.9 |  |

| SMILES | viability at 40 µM [2] [%] | viability at 10 µM [3] [%] | other results |
| --- | --- | --- | --- |
| COc1cc(C(=O)/C=C/c2ccc(OC)c3oc(-c4ccc(C)cc4)cc23)cc(OC)c1O | 82 | 37.7 |  |
| COc1ccc(-c2cc3c(/C=C/C(=O)NCCc4ccc(O)c(O)c4)ccc(OC)c3o2)cc1 | 98.2 | 99.2 | Activity [4]: Active; Activity [5]: Active |
| COc1ccc(C(=O)/C=C/c2ccc(OC)c3oc(-c4ccc(C)cc4)cc23)cc1 | 99.5 | 56.8 |  |
| COc1cc(C(=O)/C=C/c2ccc(OC)c3oc(-c4ccc(C)cc4)cc23)cc(OC)c1OC | 102 | 51.6 |  |
| COc1ccc(-c2cc3c(/C=C/C(=O)c4ccc(O)c(OC)c4)ccc(OC)c3o2)cc1 | 116 | 77.2 |  |
| COc1ccc(-c2cc3c(/C=C/C(=O)c4cc(OC)c(OC)c(OC)c4)ccc(OC)c3o2)cc1OC | 105 | 95.5 | Activity [4]: Active; Activity [5]: Active |
| COc1ccc(/C=C/C(=O)c2ccc3c(c2)OCO3)c2cc(-c3ccc(C)cc3)oc12 | 95 | 58.1 |  |
| COc1ccc(-c2cc3c(/C=C/C(=O)c4cc(OC)c(OC)c(OC)c4)ccc(OC)c3o2)cc1 | 72.9 | 43.7 | viability [1]: < 80% |
| COC(=O)[C@H](Cc1c[nH]c2ccccc12)NC(=O)/C=C/c1ccc(OC)c2oc(-c3cc(OC)cc(OC)c3)cc12 | 105 | 79.4 |  |
| COc1ccc(/C=C/C(=O)c2ccc(O)cc2)c2cc(-c3ccc(C)cc3)oc12 | 84.1 | 55.9 | viability [1]: < 80% |
| COC(=O)CNC(=O)/C=C/c1ccc(OC)c2oc(-c3ccc(C)cc3)cc12 | 93.9 | 68.9 |  |
| COc1ccc(/C=C/C(=O)NCCc2ccc(O)c(O)c2)c2cc(-c3ccc(C)cc3)oc12 | 103 | 99.3 | Activity [4]: Active; Activity [5]: Active |
| COc1cc(C(=O)/C=C/c2ccc(OC)c3oc(-c4ccc(C)cc4)cc23)ccc1O | 72.8 | 36.3 |  |
| CC1=NN(c2ccccc2)C(=O)C1 |  |  | Activity [6]: Active; Activity [7]: Active; Activity [8]: Active; Activity [9]: Active |
| COc1ccc(C(=O)/C=C/c2ccc(OC)c3oc(-c4ccc(C)cc4)cc23)cc1F | 98.8 | 50.8 |  |
| COc1cc(OC)cc(-c2cc3c(/C=C/C(=O)NCCc4ccc(O)c(O)c4)ccc(OC)c3o2)c1 | 98.7 | 76.7 | viability [1]: < 80% |
| COc1cccc(C(=O)/C=C/c2ccc(OC)c3oc(-c4ccc(C)cc4)cc23)c1OC | 78.2 | 67.5 |  |
| CCCC[C@H](NC(=O)/C=C/c1ccc(OC)c2oc(-c3ccc(C)cc3)cc12)C(=O)OC | 93.5 | 56 |  |
| COC(=O)[C@H](Cc1c[nH]c2ccccc12)NC(=O)/C=C/c1ccc(OC)c2oc(-c3ccc(OC)c(OC)c3)cc12 | 111 | 57.1 |  |
| COC(=O)[C@H](CC1CCCCC1)NC(=O)/C=C/c1ccc(OC)c2oc(-c3ccc(C)cc3)cc12 | 96.1 | 82.1 |  |
| COC(=O)[C@H](Cc1c[nH]c2ccccc12)NC(=O)/C=C/c1ccc(OC)c2oc(-c3ccc(OC)cc3)cc12 | 96 | 94.4 |  |

From ChEMBL document CHEMBL6177962, “Design, synthesis and biological evaluation of 2-arylbenzo[b]furan-4-vinylcarbonyl derivatives based on Salvianolic acid C as antioxidant neuroprotective agents for the treatment of ischemic stroke” (Eur J Med Chem, 2025)
